Test results from US20110236921A1, “CELL SYSTEM” (GE HEALTHCARE UK LIMITED, priority 2010, published 2011).

Legend:
[1] = system: WM115-Glu cells; assay: live-cell validation, cell viability (cell number) by nuclear-channel imaging, glycolytic cell line; assay type: cell-based, human; details: WM115-Glu (glucose-rich medium), 384-well live-cell plate, tested at 10.0 μM; live cells visible over full concentration range
Method: (§1) Live cells are clearly visible in the full concentration range for WM115-Glu cells, but not for WM115-Gal cells (low cell density in 0.1 μM→10.0 μM antimycin A). FIG. 4b is a graphical representation of the same data.
(§2) Antimycin A acts on respiration […] of the electron transport chain. Glucose-deprived cells (WM115-Gal) are dependent on mitochondrial respiration for ATP, and are therefore sensitive to antimycin A. In contrast, the WM115-Glu cells grown in glucose-rich media are reliant on glycolysis for ATP generation and as predicted, these cells appear resistant to antimycin A.

[2] = system: WM115-Gal cells; assay: live-cell validation, cell viability (cell number) by nuclear-channel imaging, respiring cell line; assay type: cell-based, human; details: WM115-Gal (glucose-free galactose medium), 384-well live-cell plate; as low as 0.1 μM; low cell density at 0.1 μM→10.0 μM
Method: as §1, §2

antimycin A
sensitivity of cells to drug (live cells visible / cell number) [1]: resistant | sensitivity of cells to drug (live cells visible / cell number) [2]: susceptible
